# Measurements from patent US20250313563A1, “GLYCOGEN SYNTHASE KINASE 3 INHIBITORS AND USES THEREOF” (The Broad Institute, Inc., priority 2022, published 2025).
# Where two headings read alike, the source gives them in different places.
# What was measured:
# [1] = target: GSK3α (GST-full length GSK3α) (Homo sapiens (Human), UniProt P49840); assay: GSK3α TR-FRET kinase assay; format: biochemical
# How it was run: (§1)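 Compound was preincubated 30 min with 1 nM GST-GSK3 enzyme. Reaction ran 100 min at ambient temperature in Tris pH 7.5/MgCl2 with 200 nM biotinylated pS645-glycogen synthase 631-650 peptide and ATP (4 μM GSK3α, 2 μM GSK3b, or 1 mM). The EDTA-stopped reaction was read by TR-FRET (Tb-anti-pSer641/streptavidin-d2), and IC50s were fitted.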
# [2] = target: GSK3b (GST-full length GSK3b) (Homo sapiens (Human), UniProt P49841); assay: GSK3b TR-FRET kinase assay; format: biochemical
# How it was run: as §1
# [3] = 1 nM GSK3α, 4 μM ATP, 30 minute preincubation, Table 16, read-out: GSK3-A TR-FRET BIOCHEMICAL (TR-FRET)
# [4] = 1 nM GSK3b, 2 μM ATP, 30 minute preincubation, Table 16, read-out: GSK3-B TR-FRET BIOCHEMICAL (TR-FRET)
# [5] = 1 nM GSK3α, 4 μM ATP, 30 minute preincubation, geometric mean, read-out: GSK3-A TR-FRET BIOCHEMICAL (TR-FRET), GMean, IC50
# [6] = 1 nM GSK3b, 2 μM ATP, 30 minute preincubation, geometric mean, read-out: GSK3-B TR-FRET BIOCHEMICAL (TR-FRET), GMean, IC50
# [7] = 1 nM GSK3α, 4 μM ATP, 30 minute preincubation, read-out: GSK3-A TR-FRET BIOCHEMICAL (TR-FRET), IC50
# [8] = 1 nM GSK3b, 2 μM ATP, 30 minute preincubation, read-out: GSK3-B TR-FRET BIOCHEMICAL (TR-FRET), IC50
# [9] = GSK3-A (TR-FRET 1 mM ATP), GMean, IC50, 1 mM ATP, geometric mean
# [10] = GSK3-B (TR-FRET 1 mM ATP), GMean, IC50, 1 mM ATP, geometric mean
# [11] = 1 nM GSK3α, 4 μM ATP, 30 minute preincubation, Table 16, read-out: GSK3-A TR-FRET BIOCHEMICAL (TR-FRET), IC50
# [12] = 1 nM GSK3b, 2 μM ATP, 30 minute preincubation, Table 16, read-out: GSK3-B TR-FRET BIOCHEMICAL (TR-FRET), IC50
# [13] = read-out: GSK3-A (TR-FRET 1 mM ATP), GMean, IC50, 1 mM ATP, geometric mean
# [14] = read-out: GSK3-B (TR-FRET 1 mM ATP), GMean, IC50, 1 mM ATP, geometric mean
# Sequence of GSK3b (GST-full length GSK3b) (P49841 whole entry): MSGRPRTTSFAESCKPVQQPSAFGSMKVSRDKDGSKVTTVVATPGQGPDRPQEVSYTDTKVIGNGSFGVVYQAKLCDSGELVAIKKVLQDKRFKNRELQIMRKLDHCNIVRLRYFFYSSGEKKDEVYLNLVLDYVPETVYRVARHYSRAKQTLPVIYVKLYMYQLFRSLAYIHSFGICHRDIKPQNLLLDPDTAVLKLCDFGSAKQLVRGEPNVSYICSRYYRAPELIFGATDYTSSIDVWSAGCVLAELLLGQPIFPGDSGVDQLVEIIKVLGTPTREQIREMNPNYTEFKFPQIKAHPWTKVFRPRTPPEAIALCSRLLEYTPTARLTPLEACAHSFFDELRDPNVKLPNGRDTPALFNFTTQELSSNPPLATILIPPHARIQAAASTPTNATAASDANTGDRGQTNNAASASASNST
# Sequence of GSK3α (GST-full length GSK3α) (P49840 whole entry): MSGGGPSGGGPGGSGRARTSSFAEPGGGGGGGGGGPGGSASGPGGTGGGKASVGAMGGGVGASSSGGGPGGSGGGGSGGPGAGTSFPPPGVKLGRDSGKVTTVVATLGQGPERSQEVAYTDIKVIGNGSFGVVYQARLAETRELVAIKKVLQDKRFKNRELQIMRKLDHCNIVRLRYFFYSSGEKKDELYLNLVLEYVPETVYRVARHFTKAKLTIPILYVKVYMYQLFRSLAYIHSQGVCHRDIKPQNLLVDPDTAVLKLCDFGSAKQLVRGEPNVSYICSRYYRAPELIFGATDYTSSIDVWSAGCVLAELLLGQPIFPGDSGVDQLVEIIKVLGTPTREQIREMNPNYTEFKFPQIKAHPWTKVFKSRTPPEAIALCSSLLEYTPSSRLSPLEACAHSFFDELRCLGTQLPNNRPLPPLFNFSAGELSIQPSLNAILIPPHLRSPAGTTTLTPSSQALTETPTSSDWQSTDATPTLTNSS
compound,measurement,setting,value
CCc1ncc(S(=O)(=O)N2CCC3(CC2)C2=C(CC(C)(C)CC2=O)Nc2n[nH]cc23)s1 [Compound 947252],IC50,[1]; [3],≤ 100 nM
same,IC50,[2]; [4],≤ 100 nM
CCC1(c2cccc(-c3cnn(C)c3)c2)C2=C(CC(C)(C)NC2=O)Nc2n[nH]c(F)c21 (stereo not drawn) [Compound 949011],IC50,[1]; [5],≤ 100 nM
same,IC50,[2]; [6],100 to 1000 nM
CCC1(c2cccc(-c3ccnc(C)c3C)c2)C2=C(CC(C)(C)NC2=O)Nc2n[nH]cc21 (stereo not drawn) [Compound 945994],IC50,[1]; [7],≤ 100 nM
same,IC50,[2]; [8],100 to 1000 nM
Cn1ccc(S(=O)(=O)N2CCC3(CC2)C2=C(CC(C)(C)CC2=O)Nc2n[nH]cc23)n1 [Compound 901471],IC50,[1]; [3],≤ 100 nM
same,IC50,[1]; [9],100 to 1000 nM
same,IC50,[2]; [4],≤ 100 nM
same,IC50,[2]; [10],1000 to 5000 nM
CCC1(c2cccc(-c3ccnc(N4CCCCC4)c3)c2)C2=C(CC(C)(C)NC2=O)Nc2n[nH]cc21 (stereo not drawn) [Compound 948663],IC50,[1]; [5],> 5000 nM
same,IC50,[2]; [6],> 5000 nM
COc1cccc(S(=O)(=O)N2CC[C@]3(C2)C2=C(CC(C)(C)CC2=O)Nc2n[nH]cc23)c1 [Compound 951789],IC50,[1]; [7],≤ 100 nM
same,IC50,[1]; [9],100 to 1000 nM
same,IC50,[2]; [8],≤ 100 nM
same,IC50,[2]; [10],100 to 1000 nM
Cc1[nH]nc2c1C(C)(c1cccc(C(F)(F)F)c1)C1=C(CC(C)(C)CC1=O)N2 (stereo not drawn) [Compound 811556],IC50,[1]; [5],≤ 100 nM
same,IC50,[2]; [6],≤ 100 nM
CC[C@]1(c2cccc(C(F)(F)F)c2)C2=C(CCN(c3ccc(C)cc3)C2=O)Nc2n[nH]cc21 [Compound 949119],IC50,[1]; [5],1000 to 5000 nM
same,IC50,[2]; [6],> 5000 nM
CC1(C)CC(=O)C2=C(C1)Nc1n[nH]cc1C21CN(Cc2ccccn2)C1 [Compound 929438],IC50,[1]; [11],> 5000 nM
same,IC50,[2]; [12],> 5000 nM
CCC1(c2cccc(-c3ccnn3CCC(C)C)c2)C2=C(CC(C)(C)CC2=O)Nc2n[nH]cc21 (stereo not drawn) [Compound 946096],IC50,[1]; [3],100 to 1000 nM
same,IC50,[2]; [4],> 5000 nM
CCC1(c2cccc(OC)c2)C2=C(CC(C)(C)NC2=O)Nc2n[nH]c(C)c21 (stereo not drawn) [Compound 948763],IC50,[1]; [5],≤ 100 nM
same,IC50,[2]; [6],100 to 1000 nM
CCC1(c2cccc(C(F)(F)F)c2)C2=C(CC(C)(C)CC2=O)Nc2n[nH]c(Br)c21 (stereo not drawn) [Compound 802358],IC50,[1]; [5],≤ 100 nM
same,IC50,[2]; [6],≤ 100 nM
CCC1(c2cccc(-c3ccnc(C)c3)c2)C2=C(CC(C)(C)NC2=O)Nc2n[nH]cc21 (stereo not drawn) [Compound 927325],IC50,[1]; [7],≤ 100 nM
same,IC50,[1]; [13],100 to 1000 nM
same,IC50,[2]; [8],100 to 1000 nM
same,IC50,[2]; [14],> 5000 nM
CCC1(c2cccc(N3CCCCC3)c2)C2=C(CC(C)(C)NC2=O)Nc2n[nH]c(C(F)(F)F)c21 (stereo not drawn) [Compound 949183],IC50,[1]; [5],≤ 100 nM
same,IC50,[1]; [13],≤ 100 nM
same,IC50,[2]; [6],≤ 100 nM
same,IC50,[2]; [14],100 to 1000 nM
CCC1(c2cccc(-c3cnn(C)c3)c2)C2=C(CC(C)CC2=O)Nc2n[nH]cc21 (stereo not drawn) [Compound 823720],IC50,[1]; [5],≤ 100 nM
same,IC50,[2]; [6],100 to 1000 nM
CCC1(c2cccc(C(F)(F)F)c2)C2=C(CC(C)(C)CC2=O)Nc2n[nH]cc21 (stereo not drawn) [Compound 790754],IC50,[1]; [5],≤ 100 nM
same,IC50,[1]; [13],100 to 1000 nM
same,IC50,[2]; [6],≤ 100 nM
same,IC50,[2]; [14],1000 to 5000 nM
CCC1(c2cccc(-c3ccncc3F)c2)C2=C(CC(C)(C)NC2=O)Nc2n[nH]c(C(F)F)c21 (stereo not drawn) [Compound 950320],IC50,[1]; [11],≤ 100 nM
same,IC50,[2]; [12],≤ 100 nM
CCC1(c2cccc(-c3cncn3C)c2)C2=C(CC(C)(C)CC2=O)Nc2n[nH]cc21 (stereo not drawn) [Compound 943533],IC50,[1]; [3],≤ 100 nM
same,IC50,[2]; [4],≤ 100 nM
CC[C@]1(c2cccc(N3CCC3)c2)C2=C(CC(C)(C)CC2=O)Nc2n[nH]cc21 [Compound 889632],IC50,[1]; [11],> 5000 nM
same,IC50,[2]; [12],> 5000 nM
CCC1(c2cccc(S(=O)(=O)C3CC3)c2)C2=C(CC(C)(C)NC2=O)Nc2n[nH]c(C)c21 (stereo not drawn) [Compound 947562],IC50,[1]; [5],≤ 100 nM
same,IC50,[2]; [6],≤ 100 nM
CC1(C)CC(=O)C2=C(C1)Nc1n[nH]cc1[C@@]21CCO[C@@H](C(F)(F)F)C1 [Compound 884024],IC50,[1]; [11],1000 to 5000 nM
same,IC50,[2]; [12],> 5000 nM
CCC1(c2cccc(-c3cnn(C)c3)c2)C2=C(CC(C)(C)CC2=O)Nc2n[nH]c(C)c21 (stereo not drawn) [Compound 913038],IC50,[1]; [11],100 to 1000 nM
same,IC50,[2]; [12],1000 to 5000 nM
CC[C@@]1(c2cccc(C(F)(F)F)c2)C2=C(CCC2=O)Nc2n[nH]cc21 [Compound 951565],IC50,[1]; [11],≤ 100 nM
same,IC50,[2]; [12],100 to 1000 nM
CCc1cc(-c2cccc([C@]3(CC)C4=C(CC(C)(C)NC4=O)Nc4n[nH]cc43)c2)ccn1 [Compound 948360],IC50,[1]; [5],1000 to 5000 nM
same,IC50,[2]; [6],> 5000 nM
CCC1(c2cccc(-c3cnn(C)c3)c2)C2=C(CC(C)(C)CC2=O)Nc2n[nH]c(C)c21 (stereo not drawn) [Compound 913031],IC50,[1]; [11],≤ 100 nM
same,IC50,[2]; [12],≤ 100 nM
CC1(C)CC2=C(C(=O)[C@H]1F)C1(CCOCC1)c1c[nH]nc1N2 [Compound 883836],IC50,[1]; [3],100 to 1000 nM
same,IC50,[2]; [4],1000 to 5000 nM
CC1(C)CC(=O)C2=C(C1)Nc1n[nH]c(Br)c1C21CCNc2ccccc21 (stereo not drawn) [Compound 810460],IC50,[1]; [5],1000 to 5000 nM
same,IC50,[2]; [6],> 5000 nM
CC(=O)N1CC[C@]2(C1)C1=C(CC(C)(C)CC1=O)Nc1n[nH]cc12 [Compound 889584],IC50,[1]; [11],100 to 1000 nM
same,IC50,[2]; [12],1000 to 5000 nM
COCc1cccc(S(=O)(=O)N2CCC3(CC2)C2=C(CC(C)(C)CC2=O)Nc2n[nH]cc23)c1 [Compound 947605],IC50,[1]; [3],≤ 100 nM
same,IC50,[2]; [4],≤ 100 nM
CC1(C)CC(=O)C2=C(C1)Nc1n[nH]cc1[C@]21CCOC1 [Compound 877313],IC50,[1]; [3],100 to 1000 nM
same,IC50,[2]; [4],100 to 1000 nM
CCC1(c2cccc(C(F)(F)F)c2)C2=C(CC(C)CC2=O)Nc2n[nH]cc21 (mixture of isomers) [Compound 801397],IC50,[1]; [5],≤ 100 nM
same,IC50,[2]; [6],100 to 1000 nM
C[C@H]1C[C@@H]2C[C@]3(C[C@@H]2C1)C1=C(CC(C)(C)CC1=O)Nc1n[nH]cc13 [Compound 943896],IC50,[1]; [7],≤ 100 nM
same,IC50,[2]; [8],≤ 100 nM
CCC1(c2cccc(C(F)F)c2)C2=C(CC(C)(C)CC2=O)Nc2n[nH]cc21 (stereo not drawn) [Compound 819564],IC50,[1]; [5],≤ 100 nM
same,IC50,[2]; [6],≤ 100 nM
CCN(c1cccc([C@@]2(CC)C3=C(CC(C)(C)CC3=O)Nc3n[nH]cc32)c1)c1ncccn1 [Compound 947334],IC50,[1]; [3],100 to 1000 nM
same,IC50,[2]; [4],1000 to 5000 nM
Cc1ccc(C(=O)N2CC3(C2)CC2(CO3)C3=C(CC(C)(C)CC3=O)Nc3n[nH]cc32)cc1 (stereo not drawn) [Compound 947290],IC50,[1]; [7],≤ 100 nM
same,IC50,[2]; [8],≤ 100 nM
CCC1(c2cccc(C(F)F)c2)C2=C(CC(C)(C)NC2=O)Nc2n[nH]c(C(F)(F)F)c21 (stereo not drawn) [Compound 951948],IC50,[1]; [11],≤ 100 nM
same,IC50,[1]; [13],≤ 100 nM
same,IC50,[2]; [12],≤ 100 nM
same,IC50,[2]; [14],100 to 1000 nM
CC[C@]1(c2ccccc2)C2=C(CC(C)(C)[C@@H](F)C2=O)Nc2n[nH]cc21 [Compound 826766],IC50,[1]; [5],100 to 1000 nM
same,IC50,[2]; [6],100 to 1000 nM
CC1(C)CC(=O)C2=C(C1)Nc1n[nH]cc1C21CC2(CCOCC2)C1 [Compound 874534],IC50,[1]; [7],≤ 100 nM
same,IC50,[1]; [9],100 to 1000 nM
same,IC50,[2]; [8],≤ 100 nM
same,IC50,[2]; [10],100 to 1000 nM
CCC1(c2ccn(C)n2)C2=C(CC(C)(C)CC2=O)Nc2n[nH]cc21 (stereo not drawn) [Compound 790619],IC50,[1]; [5],1000 to 5000 nM
same,IC50,[2]; [6],> 5000 nM
CC[C@]1(c2cccc(N(c3cccnc3)C(C)C)c2)C2=C(CC(C)(C)CC2=O)Nc2n[nH]cc21 [Compound 917087],IC50,[1]; [11],100 to 1000 nM
same,IC50,[2]; [12],1000 to 5000 nM
CCC1(c2cccc(-c3cnn(C)c3C(F)(F)F)c2)C2=C(CC(C)(C)NC2=O)Nc2n[nH]cc21 (stereo not drawn) [Compound 948826],IC50,[1]; [5],1000 to 5000 nM
same,IC50,[2]; [6],> 5000 nM
